The record followed here is patent publication US7332501B2, “Indol-3-yl-carbonyl-spiro-piperidine derivatives as V1a receptor antagonists” (Hoffmann-La Roche Inc., priority 2005, dated 2008).

T1 sequence (P37288 whole entry): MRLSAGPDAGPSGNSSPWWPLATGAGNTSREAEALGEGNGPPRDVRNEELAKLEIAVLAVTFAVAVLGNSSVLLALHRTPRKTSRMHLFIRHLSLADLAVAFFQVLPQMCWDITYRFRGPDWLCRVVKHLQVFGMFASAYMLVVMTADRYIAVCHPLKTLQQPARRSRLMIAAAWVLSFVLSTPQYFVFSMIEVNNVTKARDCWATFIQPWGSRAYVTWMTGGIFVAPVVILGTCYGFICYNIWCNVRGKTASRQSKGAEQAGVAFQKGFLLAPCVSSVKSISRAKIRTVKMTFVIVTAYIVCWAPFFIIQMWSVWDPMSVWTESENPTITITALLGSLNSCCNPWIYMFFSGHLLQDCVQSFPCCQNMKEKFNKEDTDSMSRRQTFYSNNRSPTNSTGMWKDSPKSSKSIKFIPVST

The experiment addresses T1, human V1a receptor (Homo sapiens, UniProt P37288).
T1 construct: expressed in transfected cells; host or cells: HEK293 cells, transiently transfected; cell membranes
The experiment can be described thus: human V1a receptor binding (3H-Vasopressin SPA, HEK293 membranes). To be noted: displacement of 4 nM 3H-Vasopressin, membranes of HEK293 cells transiently transfected with human V1a receptor; Ki from IC50 by Cheng-Prussoff. The method in brief: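 Ki derived by Cheng-Prusoff from IC50 curves normalised to specific binding. Serially diluted compounds (in 2% DMSO) competed with 3H-vasopressin (4 nM working solution) for 1 h at room temperature on SPA beads bearing membranes of transiently transfected HEK293 cells; unlabelled vasopressin defined non-specific counts.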
In general, Ki refers to the dissociation constant of the complex between target and ligand, obtained from inhibition or displacement. Compound `COCC1(Cn2cc(C(=O)N3CCC4(CC3)OC(=O)c3cc(F)ccc34)c3ccc(Cl)cc32)CC1` [Example 190, 1′-[(6-Chloro-1-{[1-(methoxymethyl)cyclopropyl]methyl}-1H-indol-3-yl)carbonyl]-5-fluoro-3H-spiro[2-benzofuran-1,4′-piperidin]-3-one] returned a Ki of 2.6 nM.
`O=C1OC2(CCN(C(=O)c3cn(Cc4cc(F)cc(F)c4)c4cc(Cl)ccc34)CC2)c2ccc(F)cc21` [Example 142, 1′-{[6-Chloro-1-(3,5-difluorobenzyl)-1H-indol-3-yl]carbonyl}-5-fluoro-3H-spiro[2-benzofuran-1,4′-piperidin]-3-one] displayed a Ki of 0.6 nM.
Regarding `O=C(Cn1cc(C(=O)N2CCC3(CC2)OCc2ccccc23)c2ccc(Cl)cc21)c1ccccn1` [Example 229, 2-[6-Chloro-3-(1′H,3H-spiro[2-benzofuran-1,4′-piperidin]-1′-ylcarbonyl)-1H-indol-1-yl]-1-pyridin-2-ylethanone], the Ki was 1.6 nM.
For `O=C(Cn1cc(C(=O)N2CCC3(CC2)OC(=O)c2cc(Br)ccc23)c2ccc(Cl)cc21)c1cccc(F)c1` [Example 152, 5-Bromo-1′-({6-chloro-1-[2-(3-fluorophenyl)-2-oxoethyl]-1H-indol-3-yl}carbonyl)-3H-spiro[2-benzofuran-1,4′-piperidin]-3-one] the value was 4.4 nM; for `O=C(c1cn(CC2CO2)c2cc(Cl)ccc12)N1CCC2(CC1)OCc1ccccc12` (centres unmarked) [Example 258, 1′-{[6-Chloro-1-(oxiran-2-ylmethyl)-1H-indol-3-yl]carbonyl}-3H-spiro[2-benzofuran-1,4′-piperidine]], 3.7 nM.
For `Cc1c(C(=O)N2CCC3(CC2)OC(=O)c2ccc(OCCO)cc23)c2ccccc2n1Cc1ccccc1` [Example 122, 1′-[(1-benzyl-2-methyl-1H-indol-3-yl)carbonyl]-6-(2-hydroxyethoxy)-3H-spiro[2-benzofuran-1,4′-piperidin]-3-one] the value was 5.2 nM; for `O=C1OC2(CCN(C(=O)c3c(C(=O)N4CCCCC4)[nH]c4cc(Cl)ccc34)CC2)c2ccc(F)cc21` [Example 33, 1′-{[6-chloro-2-(piperidin-1-ylcarbonyl)-1H-indol-3-yl]carbonyl}-5-fluoro-3H-spiro[2-benzofuran-1,4′-piperidin]-3-one], 10.8 nM.
In turn, `N#CCC1(Cn2cc(C(=O)N3CCC4(CC3)OC(=O)c3cc(F)ccc34)c3ccc(Cl)cc32)CC1` [Example 191, [1-({6-Chloro-3-[(5-fluoro-3-oxo-1′H,3H-spiro[2-benzofuran-1,4′-piperidin]-1′-yl)carbonyl]-1H-indol-1-yl}methyl)cyclopropyl]acetonitrile] yielded an inhibition constant Ki of 2.8 nM.
As to `O=C1OC2(CCN(C(=O)c3cn(-c4cccc(F)c4)c4cc(Cl)ccc34)CC2)c2ccccc21` [Example 155, 1′-{[6-Chloro-1-(3-fluorophenyl)-1H-indol-3-yl]carbonyl}-3H-spiro[2-benzofuran-1,4′-piperidin]-3-one], affinity was put at a Ki of 5 nM.
On to `Cc1nc(Cn2cc(C(=O)N3CCC4(CC3)OC(=O)c3cc(F)ccc34)c3ccc(Cl)cc32)c(C)o1` [Example 187, 1′-({6-Chloro-1-[(2,5-dimethyl-1,3-oxazol-4-yl)methyl]-1H-indol-3-yl}carbonyl)-5-fluoro-3H-spiro[2-benzofuran-1,4′-piperidin]-3-one], for which the inhibition constant Ki worked out at 3.6 nM.
For `CCN(CC)CCn1cc(C(=O)N2CCC3(CC2)COc2ccccc23)c2ccc(Cl)cc21` [Example 85, 2-[6-chloro-3-(1′H-spiro[1-benzofuran-3,4′-piperidin]-1′-ylcarbonyl)-1H-indol-1-yl]-N,N-diethylethanamine] the value was 10.2 nM; for `O=C(c1cn(-c2cccc(F)c2)c2cc(Cl)ccc12)N1CCC2(CC1)OCc1ccccc12` [Example 223], 2.5 nM.
Regarding `COCC1(Cn2cc(C(=O)N3CCC4(CC3)OC(=O)c3ccccc34)c3ccc(Cl)cc32)CC1` [Example 192, 1′-[(6-Chloro-1-{[1-(methoxymethyl)cyclopropyl]methyl}-1H-indol-3-yl)carbonyl]-3H-spiro[2-benzofuran-1,4′-piperidin]-3-one], the affinity corresponds to a Ki of 2.4 nM.
On to `Cc1c(C(=O)N2CCC3(CC2)OCc2ccccc23)c2ccccc2n1C(=O)c1ccccc1` [Example 44, 1′-[(1-benzoyl-2-methyl-1H-indol-3-yl)carbonyl]-3H-spiro[2-benzofuran-1,4′-piperidine]], for which the Ki worked out at 11 nM.
With `O=C(Cn1cc(C(=O)N2CCC3(CC2)CNc2ccccc23)c2ccc(Cl)cc21)c1ccccn1` [Example 101, 2-[6-Chloro-3-(1,2-dihydro-1′H-spiro[indole-3,4′-piperidin]-1′-ylcarbonyl)-1H-indol-1-yl]-1-pyridin-2-ylethanone], the Ki was 27.9 nM.
On to `O=C(Cn1cc(C(=O)N2CCC3(CC2)OCc2ccccc23)c2ccc(Cl)cc21)N1CCOCC1` [Example 205, 1′-{[6-Chloro-1-(2-morpholin-4-yl-2-oxoethyl)-1H-indol-3-yl]carbonyl}-3H-spiro[2-benzofuran-1,4′-piperidine]], for which the Ki was 1 nM.
With `CCN(CC)C(=O)Cn1cc(C(=O)N2CCC3(CC2)CNc2ccccc23)c2ccc(Cl)cc21` [Example 99, 2-[6-Chloro-3-(1,2-dihydro-1′H-spiro[indole-3,4′-piperidin]-1′-ylcarbonyl)-1H-indol-1-yl]-N,N-diethylacetamide], the inhibitory constant (Ki) is 5.7 nM.
For `O=C1OC2(CCN(C(=O)c3cn(C(=O)c4cc(F)cc(F)c4)c4cc(Cl)ccc34)CC2)c2ccccc21` [Example 130, 1′-{[6-Chloro-1-(3,5-difluorobenzoyl)-1H-indol-3-yl]carbonyl}-3H-spiro[2-benzofuran-1,4′-piperidin]-3-one] the value was 11.1 nM; for `O=C(c1cn(S(=O)(=O)c2cc(F)cc(F)c2)c2cc(Cl)ccc12)N1CCC2(CC1)OCc1ccccc12` [Example 218], 25.1 nM; for `O=C(Cn1cc(C(=O)N2CCC3(CC2)OC(=O)c2cc(F)ccc23)c2ccc(Cl)cc21)c1ccccn1` [Example 169, 1′-{[6-Chloro-1-(2-oxo-2-pyridin-2-ylethyl)-1H-indol-3-yl]carbonyl}-5-fluoro-3H-spiro[2-benzofuran-1,4′-piperidin]-3-one], 1.5 nM.
The compound `O=C1OC2(CCN(C(=O)c3cn(Cc4cc(F)cc(F)c4)c4cc(Cl)ccc34)CC2)c2ccc(Br)cc21` [Example 150, 5-Bromo-1′-{[6-chloro-1-(3,5-difluorobenzyl)-1H-indol-3-yl]carbonyl}-3H-spiro[2-benzofuran-1,4′-piperidin]-3-one] registered an inhibition constant (Ki) of 3.8 nM.
In turn, `O=C1OC2(CCN(C(=O)c3c[nH]c4cc(Cl)ccc34)CC2)c2ccccc21` [Example 16, 1′-[(6-chloro-1H-indol-3-yl)carbonyl]-3H-spiro[2-benzofuran-1,4′-piperidin]-3-one] displayed an inhibitory constant (Ki) of 4.4 nM.
`NC(=O)c1[nH]c2cc(Cl)ccc2c1C(=O)N1CCC2(CC1)OC(=O)c1cc(F)ccc12` [Example 25, 6-chloro-3-[(5-fluoro-3-oxo-1′H,3H-spiro[2-benzofuran-1,4′-piperidin]-1′-yl)carbonyl]-1H-indole-2-carboxamide] displayed a Ki of 20.4 nM.
Regarding `O=C(c1cn(C(=O)c2cccc(F)c2F)c2cc(Cl)ccc12)N1CCC2(CC1)OCc1ccccc12` [Example 217], the inhibitory constant (Ki) was found to be 5.8 nM.
With `N#CCn1cc(C(=O)N2CCC3(CC2)OCc2ccccc23)c2ccc(Cl)cc21` [Example 76, [6-chloro-3-(1′H,3H-spiro[2-benzofuran-1,4′-piperidin]-1′-ylcarbonyl)-1H-indol-1-yl]acetonitrile], the affinity corresponds to a Ki of 1.7 nM.
With `CCN(CC)C(=O)Cn1cc(C(=O)N2CCC3(CC2)OCc2ccccc23)c2ccc(Cl)cc21` [Example 207, 2-[6-Chloro-3-(1′H,3H-spiro[2-benzofuran-1,4′-piperidin]-1′-ylcarbonyl)-1H-indol-1-yl]-N,N-diethylacetamide], the affinity corresponds to a Ki of 1.1 nM.
The compound `O=C(c1cn(CCN2CCOCC2)c2cc(Cl)ccc12)N1CCC2(CC1)OCc1ccccc12` [Example 256, 1′-{[6-Chloro-1-(2-morpholin-4-ylethyl)-1H-indol-3-yl]carbonyl}-3H-spiro[2-benzofuran-1,4′-piperidine]] returned an inhibition constant Ki of 2.4 nM.
`O=C(Cn1cc(C(=O)N2CCC3(CC2)OC(=O)c2ccccc23)c2ccc(Cl)cc21)c1ccc(F)c(F)c1` [Example 154, 1′-({6-Chloro-1-[2-(3,4-difluorophenyl)-2-oxoethyl]-1H-indol-3-yl}carbonyl)-3H-spiro[2-benzofuran-1,4′-piperidin]-3-one]: the inhibitory constant (Ki) worked out at 1.3 nM.
For the compound `O=C1OC2(CCN(C(=O)c3cn(Cc4ccncc4)c4cc(Cl)ccc34)CC2)c2ccccc21` [Example 168, 1′-{[6-Chloro-1-(pyridin-4-ylmethyl)-1H-indol-3-yl]carbonyl}-3H-spiro[2-benzofuran-1,4′-piperidin]-3-one], the Ki was 2.4 nM.
For `CN1CCC[C@H](Cn2cc(C(=O)N3CCC4(CC3)OCc3ccccc34)c3ccc(Cl)cc32)C1` [Example 265, 1′-[(6-Chloro-1-{[(3S)-1-methylpiperidin-3-yl]methyl}-1H-indol-3-yl)carbonyl]-3H-spiro[2-benzofuran-1,4′-piperidine]] the value was 1.4 nM; for `O=C1OC2(CCN(C(=O)c3cn(Cc4ccncc4)c4cc(Cl)ccc34)CC2)c2ccc(F)cc21` [Example 166, 1′-{[6-Chloro-1-(pyridin-4-ylmethyl)-1H-indol-3-yl]carbonyl}-5-fluoro-3H-spiro[2-benzofuran-1,4′-piperidin]-3-one], 2.4 nM.
For `O=C(c1cn(CCO)c2cc(Cl)ccc12)N1CCC2(CC1)OCc1ccccc12` [Example 259, 2-[6-Chloro-3-(1′H,3H-spiro[2-benzofuran-1,4′-piperidin]-1′-ylcarbonyl)-1H-indol-1-yl]ethanol], the Ki turned out to be 2.6 nM.
